One data set has as its system atrium. Briefly: Effects on the atrial effective refractory period (S1-S2 extrastimulus technique during bilateral vagal nerve stimulation) in anesthetized beagles. Format: in vivo. Conditions: intravenous, from 5 minutes after administration, basic cycle length 300 msec. How it is done: Effects on the Effective Refractory Period
Beagles were anesthetized with pentobarbital sodium and thoracotomy was done along the median line under a respirator and the incision was made on the pericardium to expose the heart. An electrocardiogram (ECG) was recorded using bipolar electrodes attached to the surface of the right atrial free wall, right atrial auricle, and right ventricular free wall. The vagal nerves were stimulated using an electrostimulation device with Nichrome wires inserted into the vagal nerves in the neck bilaterally. The conditions for electrostimulation to the vagal nerves were set such that the RR intervals on ECG were prolonged by about 100 msec compared with those before the stimulation was started.
Atrial and ventricular effective refractory periods were determined by S1-S2 extrastimulus technique at basic cycle length of 300 msec during bilateral vagal nerve stimulation, using programmable electric stimulator. A train of 10 basic stimuli (S1) was followed by a premature extrastimulus (S2) at 2 times diastolic threshold.
For evaluation of drug effects, the atrial and ventricular effective refractory periods were determined before drug administration, then respective compound was administrated intravenously at the dose of 0.3 mg/kg or 0.6 mg/kg, and the atrial and ventricular effective refractory periods were determined from 5 minutes after the administration.
The results were shown as the prolongation time on the atrial and ventricular effective refractory periods, i.e. [effective refractory period after drug administration]−[effective refractory period before drug administration] (msec).

A word on the melting point: it is the temperature of the solid-liquid transition. The compound `CC1(C)Oc2ccc3nc(C#N)ccc3c2[C@@H](NCCc2ccccc2)[C@@H]1O` (racemic) [Synthesis Example 10, (±)-trans-2-Hydroxy-3,3-dimethyl-1-[(2-phenylethyl)amino]-2,3-dihydro-1H-pyrano[3,2-f]quinoline-8-carbonitrile] returned a melting point of 93 to 96 °C.
Turning to `Cc1cc(Cl)nc2cc3c(cc12)OC(C)(C)[C@H](O)[C@H]3NCCC1CCCCC1.Cl` (relative stereo) [Synthesis Example 53, (3R*,4S*)-7-chloro-2,2,9-trimethyl-4-[(2-cyclohexylethyl)amino]-3,4-dihydro-2H-pyrano[2,3-g]quinolin-3-ol hydrochloride], the melting point is 294 to 295 °C (dec.). Also, the “Atrial Refractory Period (prolongation time on the atrial effective refractory period)” value (“Atrial Refractory Period” below) with atrium (0.3 mg/kg) was determined as 30 ms.
On to `Cc1cc(Cl)[n+]([O-])c2cc3c(cc12)OC(C)(C)[C@H](O)[C@H]3NCCc1ccccc1.Cl` (relative stereo), for which the melting point was 174 to 179 °C (dec.).
Regarding `Cc1cnc2cc3c(cc2n1)OC(C)(C)[C@H](O)[C@H]3NCCc1ccccc1.O=C(O)/C=C\C(=O)O` (relative stereo) [Synthesis Example 68, (3R*,4S*)-2,2,8-trimethyl-4-[(2-phenylethyl)amino]-3,4-dihydro-2H-pyrano[2,3-g]quinoxalin-3-ol 1 maleate], the melting point was 189 to 192 °C (dec.).
The same measure, in the same setting: then `Cc1cc(C(N)=O)nc2cc3c(cc12)OC(C)(C)[C@H](O)[C@H]3NCCc1ccccc1` (relative stereo) [Synthesis Example 15, (3R*,4S*)-3-hydroxy-2,2,9-trimethyl-4-[(2-phenylethyl)amino]-3,4-dihydro-2H-pyrano[2,3-g]quinoline-7-carboxamide], with 168 to 169 °C.
In the case of `CC1(C)Oc2cc3nccnc3cc2[C@H](NCCC2CCCCC2)[C@H]1O.Cl` (relative stereo) [Synthesis Example 69, (3R*,4S*)-4-[(2-cyclohexylethyl)amino)]-2,2-dimethyl-3,4-dihydro-2H-pyrano[2,3-g]quinoxalin-3-ol hydrochloride], the melting point was 258 to 259 °C (dec.). For the same compound, the “Atrial Refractory Period” value in the data set with atrium (0.3 mg/kg) is 37 ms.
Turning to `Cc1cc(C)c2cc3c(cc2n1)[C@@H](NCCc1ccccc1)[C@H](O)C(C)(C)O3.O=C(O)/C=C\C(=O)O` (relative stereo) [Synthesis Example 51, (3R*,4R*)-2,2,7,9-tetramethyl-4-[(2-phenethyl)amino]-3,4-dihydro-2H-pyrano[2,3-g]quinolin-3-ol 1 maleate], the melting point is 215 to 216 °C (dec.).
In turn, `CC1(C)Oc2ccc3nc(C(N)=O)ccc3c2[C@@H](NCCc2ccccc2)[C@@H]1O` (racemic) [Synthesis Example 11, (±)-trans-2-Hydroxy-3,3-dimethyl-1-[(2-phenylethyl)amino]-2,3-dihydro-1H-pyrano[3,2-f]quinoline-8-carboxamide] displayed a melting point of 197 to 199 °C.
Consider `Cc1cc(C#N)nc2cc3c(cc12)OC(C)(C)C(O)C3NCCc1ccccc1.O=C(O)/C=C\C(=O)O` (racemic) [Synthesis Example 7, (±)-trans-3-Hydroxy-2,2,9-trimethyl-4-[(2-phenylethyl)amino]-3,4-dihydro-2H-pyrano[2,3-g]quinoline-7-carbonitrile 1 maleate], for which the melting point was 218 to 220 °C (dec.). The “Atrial Refractory Period” value in the data set with atrium (0.6 mg/kg) stood at 25 ms.
For `Cc1cc(Cl)nc2cc3c(cc12)OC(C)(C)C(O)C3NCCc1ccccc1.O=C(O)/C=C\C(=O)O` (racemic) [Synthesis Example 6, (±)-trans-7-Chloro-2,2,9-trimethyl-4-[(2-phenylethyl)amino]-3,4-dihydro-2H-pyrano[2,3-g]quinolin-3-ol 1 maleate] the same measures were 221 to 226 °C (dec.) and 20 ms.
As for `Cc1cc(CO)nc2cc3c(cc12)OC(C)(C)[C@H](O)[C@H]3NCCc1ccc(F)cc1` (relative stereo) [Synthesis Example 76, (3R*,4S*)-4-{[2-(4-fluorophenyl)ethyl]amino}-7-hydroxymethyl-2,2,9-trimethyl-3,4-dihydro-2H-pyrano[2,3-g]quinolin-3-ol], the melting point lay in the range of 147 to 152 °C.
In turn, `Cc1cc(C)c2cc3c(cc2n1)C(NCCc1ccccc1)C(O)C(C)(C)O3` (racemic) [Synthesis Example 2, (±)-trans-2,2,7,9-Tetramethyl-4-[(2-phenylethyl)amino]-3,4-dihydro-2H-pyrano[2,3-g]quinolin-3-ol] yielded a melting point of 144 to 147 °C. Moreover, the “Atrial Refractory Period” value in the data set with atrium (0.6 mg/kg) was determined as 21 ms.
With `CC1(C)Oc2cc3cccnc3cc2[C@H](NCCc2ccccc2)[C@H]1O.O=C(O)/C=C\C(=O)O` (relative stereo) [Synthesis Example 77, (3R*,4S*)-2,2-dimethyl-4-[(2-phenylethyl)amino]-3,4-dihydro-2H-pyrano[2,3-g]quinolin-3-ol 1 maleate], the melting point is 187 to 192 °C (dec.). Besides, in the data set with atrium (0.3 mg/kg), the “Atrial Refractory Period” value came to 25 ms.
For the compound `CC1(C)Oc2cc3c(cc2C(NCCc2ccccc2)C1O)N(Cc1ccccc1)C(=O)C3` (stereo not shown) [Synthesis Example 90, 1-Benzyl-7-hydroxy-6,6-dimethyl-8-phenetylamino-3,6,7,8-tetrahydro-1H-pyrano[2,3-f]indole-2-one], the melting point is 195 °C (dec.).
`Cc1cc(Cl)nc2cc3c(cc12)OC(C)(C)[C@H](O)[C@H]3NCCC1CCOCC1.Cl` (relative stereo): the melting point was 318 to 320 °C (dec.).
As to `CCCCCN[C@H]1c2cc3nccnc3cc2OC(C)(C)[C@@H]1O.Cl` (relative stereo) [Synthesis Example 63, (3R*,4S*)-2,2-dimethyl-4-pentylamino-3,4-dihydro-2H-pyrano[2,3-g]quinoxalin-3-ol hydrochloride], the melting point is 209 to 212 °C (dec.). Besides, in the data set with atrium (0.3 mg/kg), the “Atrial Refractory Period” value is 23 ms.
Compound `CC1(C)Oc2ccc3nc(Cl)ccc3c2[C@@H](NCCc2ccccc2)[C@@H]1O` (racemic) [Synthesis Example 9, (±)-trans-8-Chloro-3,3-dimethyl-1-[(2-phenylethyl)amino]-2,3-dihydro-1H-pyrano[3,2-f]quinolin-2-ol] gave a melting point of 141 to 143 °C.
Same read-out and setting: then `Cc1cc(Cl)nc2cc3c(cc12)OC(C)(C)[C@@H](O)[C@@H]3NCCc1ccccc1.O=C(O)/C=C\C(=O)O` (relative stereo) [Synthesis Example 50, (3S*,4R*)-7-chloro-2,2,9-trimethyl-4-[(2-phenylethyl)amino]-3,4-dihydro-2H-pyrano[2,3-g]quinolin-3-ol 1 maleate], with 240 to 242 °C; and `Cc1cc(Cl)[n+]([O-])c2cc3c(cc12)OC(C)(C)[C@H](O)[C@H]3NCCc1ccc(F)cc1.Cl` (relative stereo), with 193 to 198 °C (dec.).
The same measure, in the same setting: next, `CCCCCN[C@H]1c2cc3c(cc2OC(C)(C)[C@@H]1O)c(C)cc(Cl)[n+]3[O-].Cl` (relative stereo): 226 to 230 °C (dec.).
`CC1(C)Oc2ccc3ncccc3c2C(NCCc2ccccc2)C1O` (racemic) [Synthesis Example 8, (±)-trans-3,3-Dimethyl-1-[(2-phenylethyl)amino]-2,3-dihydro-1H-pyrano[3,2-f]quinolin-2-ol] had a melting point of 180 to 182 °C. Besides, in the data set on atrium (0.6 mg/kg), the “Atrial Refractory Period” value was 23 ms.
As to `CC1(C)Oc2cc3c(CO)ccnc3cc2[C@H](NCCc2ccccc2)[C@H]1O.O=C(O)/C=C\C(=O)O` (relative stereo) [Synthesis Example 84, (3R*,4S*)-9-hydroxymethyl-2,2-dimethyl-4-[(2-phenylethyl)amino)]-3,4-dihydro-2H-pyrano[2,3-g]quinolin-3-ol 1 maleate], the melting point was 163 to 169 °C (dec.).
Same read-out and setting: next, `Cc1cc(O)nc2cc3c(cc12)OC(C)(C)[C@H](O)[C@H]3NCCc1ccccc1.O=C(O)/C=C\C(=O)O` (relative stereo) [Synthesis Example 85, (3R*,4S*)-2,2,9-trimethyl-4-[(2-phenylethyl)amino)]-3,4-dihydro-2H-pyrano[2,3-g]quinolin-3,7-diol 3/2 maleate]: 184 to 188 °C (dec.).
